Results on two molecules are retold here after ChEMBL document CHEMBL1158172, “Preparation and antibacterial activity of cyclic 2',3'-carbamate derivatives of azithromycin” (Eur J Med Chem, 2008).

The structures appear in SMILES notation. Active and inactive are the calls of the source. The calls are words filed in the database; no cut-off is given here.

Assay [1] deals with Staphylococcus aureus. Description: Antibacterial activity against Staphylococcus aureus ATCC 25923. In kind it is functional, organism-based.
For assay [2], the system named is Escherichia coli. Description: Antibacterial activity against Escherichia coli ATCC 25922. In kind it is functional, organism-based.

For the molecule `CC[C@H]1OC(=O)[C@H](C)[C@@H](O[C@H]2C[C@@](C)(OC)[C@@H](O)[C@H](C)O2)[C@H](C)[C@@H](O[C@@H]2O[C@H](C)C[C@H]3[C@H]2OC(=O)N3C)[C@](C)(O)C[C@@H](C)CN[C@H](C)[C@@H]2OC(=O)O[C@]12C`, the outcome in assay [1] and in assay [2] was inactive.

For `CC[C@H]1OC(=O)[C@H](C)[C@@H](O[C@H]2C[C@@](C)(OC)[C@@H](O)[C@H](C)O2)[C@H](C)[C@@H](O[C@@H]2O[C@H](C)C[C@H]3[C@H]2OC(=O)N3C)[C@](C)(O)C[C@@H](C)CN(C)[C@H](C)[C@@H]2OC(=O)O[C@]12C`, the outcome in assay [1] and in assay [2] was inactive.
